The values below come from patent US10981894B2, “Melanocortin subtype-2 receptor (MC2R) antagonists and uses thereof” (Crinetics Pharmaceuticals, Inc., priority 2018, dated 2021).

Structures are written as SMILES. A value given as a limit tells only on which side of the number the result lay.

Sequence of hMC2 receptor (Q01718 whole entry): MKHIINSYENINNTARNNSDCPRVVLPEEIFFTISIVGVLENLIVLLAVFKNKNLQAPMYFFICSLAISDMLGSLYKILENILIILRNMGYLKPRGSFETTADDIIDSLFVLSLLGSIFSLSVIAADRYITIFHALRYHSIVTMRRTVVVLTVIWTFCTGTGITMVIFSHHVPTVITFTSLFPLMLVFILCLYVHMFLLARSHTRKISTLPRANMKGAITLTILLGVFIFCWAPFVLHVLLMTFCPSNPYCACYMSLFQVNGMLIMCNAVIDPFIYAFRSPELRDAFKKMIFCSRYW
Sequence of hMC2 receptor (Q8TCY5 whole entry partner): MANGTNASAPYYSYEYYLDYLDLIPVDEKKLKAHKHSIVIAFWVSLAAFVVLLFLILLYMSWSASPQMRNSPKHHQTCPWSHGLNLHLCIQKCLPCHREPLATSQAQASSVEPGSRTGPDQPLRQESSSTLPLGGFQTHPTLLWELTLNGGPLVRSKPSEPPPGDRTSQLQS

This test has as its target hMC2 receptor (Homo sapiens, UniProt Q01718). As to the kind of experiment: hMC2 membrane binding assay ([125I]ACTH (1-39) Tyr23, SPA). On the set-up: scale not given here. The note with it: crude hMC2R membranes from CRE-bla-CHO-K1 cells expressing hMC2 receptor and hMRAP; [125I]ACTH (1-39) Tyr23 0.2 nM; 1.5 hours at room temperature; read-out: MC2R binding potency. A digest of the protocol:
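CRE-bla-CHO-K1 membranes co-expressing hMC2 receptor and hMRAP, preincubated with WGA PVT SPA beads in pH 7.4 HEPES/MgCl2/CaCl2/0.2% BSA buffer. Compounds (typically 0–10,000 nM final) compete with 0.2 nM [125I]ACTH(1-39) Tyr23 for 1.5 h at room temperature. SPA counts give Ki by non-linear regression.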
Turning to `CCOc1ncccc1-c1ccc(N2CCN(C(=O)N3CCC[C@H]3C(C)(C)F)C[C@H]2CC)c(C(=O)N[C@@H]2CCNC2)n1` [Compound 1-320, 2′-ethoxy-5-[(2R)-2-ethyl-4-[(2S)-2-(2-fluoropropan-2-yl)pyrrolidine-1-carbonyl]piperazin-1-yl]-N-[(3R)-pyrrolidin-3-yl]-[2,3′-bipyridine]-6-carboxamide], the Ki was under 10 nM.
With `CCOc1ccccc1-c1ccc(N2CCN(C(=O)C3(C(F)(F)F)CCCC3)C[C@H]2CC)c(C(=O)NCC2CN(C)C2)n1` [Compound 1-340, 6-(2-ethoxyphenyl)-3-[(2R)-2-ethyl-4-[1-(trifluoromethyl)cyclopentanecarbonyl]piperazin-1-yl]-N-[(1-methylazetidin-3-yl)methyl]pyridine-2-carboxamide] the figure was under 10 nM; with `CCOc1ncccc1-c1ccc(N2CCN(C(=O)C34CCC(C(F)(F)F)(CC3)CC4)C[C@H]2CC)c(C(=O)N[C@@H]2CCN(C)C2)n1` [Compound 1-282, 2′-ethoxy-5-[(2R)-2-ethyl-4-[4-(trifluoromethyl)bicyclo[2.2.2]octane-1-carbonyl]piperazin-1-yl]-N-[(3R)-1-methylpyrrolidin-3-yl]-[2,3′-bipyridine]-6-carboxamide], under 10 nM; with `CCOc1ncccc1-c1ccc(N2CCN(C(=O)c3ccc(OC)nc3C(F)(F)F)C[C@H]2CC)c(C(=O)NC[C@@H]2CCN2C)n1` [Compound 1-245, 2′-ethoxy-5-[(2R)-2-ethyl-4-[6-methoxy-2-(trifluoromethyl)pyridine-3-carbonyl]piperazin-1-yl]-N-{[(2S)-1-methylazetidin-2-yl]methyl}-[2,3′-bipyridine]-6-carboxamide], under 10 nM.
With `CCOc1ncccc1-c1ccc(N2CCN(C(=O)c3ccc(C(F)(F)F)cc3Cl)C[C@H]2CC)c(C(=O)NCCN)c1` [Compound 1-34, N-(2-aminoethyl)-2-[(2R)-4-[2-chloro-4-(trifluoromethyl)benzoyl]-2-ethylpiperazin-1-yl]-5-(2-ethoxypyridin-3-yl)benzamide] the figure was under 10 nM.
For the compound `CC[C@@H]1CN(C(=O)c2ccc(C(F)(F)F)cc2Cl)CCN1c1ccc(-c2cccc(F)c2Cl)cc1C(=O)NCCN` [Compound 1-9, N-(2-aminoethyl)-2′-chloro-4-[(2R)-4-[2-chloro-4-(trifluoromethyl)benzoyl]-2-ethylpiperazin-1-yl]-3′-fluoro-[1,1′-biphenyl]-3-carboxamide], the Ki is 10 to 100 nM.
Turning to `CCOc1ncccc1-c1ccc(N2CCN(C(=O)c3ccc(OC)nc3C(F)(F)F)C[C@H]2CC)c(C(=O)NCCNC)n1` [Compound 1-187, 2′-ethoxy-5-[(2R)-2-ethyl-4-[6-methoxy-2-(trifluoromethyl)pyridine-3-carbonyl]piperazin-1-yl]-N-[2-(methylamino)ethyl]-[2,3′-bipyridine]-6-carboxamide], the Ki is under 10 nM.
Take `CCOc1ccccc1-c1ccc(N2CCN(C(=O)c3ccc(Cl)cc3C(F)(F)F)C[C@H]2CC)c(C(=O)N[C@@H]2CCN(C)C2)n1` [Compound 1-206, 3-[(2R)-4-[4-chloro-2-(trifluoromethyl)benzoyl]-2-ethylpiperazin-1-yl]-6-(2-ethoxyphenyl)-N-[(3R)-1-methylpyrrolidin-3-yl]pyridine-2-carboxamide]: the Ki was under 10 nM.
Next, `CCOc1ncccc1-c1ccc(N2CCN(C(=O)C3(CC)CCCC3)C[C@H]2CC)c(C(=O)NCCNC)n1` [Compound 1-264, 2′-ethoxy-5-[(2R)-2-ethyl-4-(1-ethylcyclopentanecarbonyl)piperazin-1-yl]-N-[2-(methylamino)ethyl]-[2,3′-bipyridine]-6-carboxamide]: under 10 nM; `CCOc1ncccc1-c1ccc(N2CCN(C(=O)c3ccc(Cl)cc3C(F)(F)F)C[C@H]2CC)c(C(=O)NC[C@@H]2CNCCO2)c1` [Compound 1-109, 2-[(2R)-4-[4-chloro-2-(trifluoromethyl)benzoyl]-2-ethylpiperazin-1-yl]-5-(2-ethoxypyridin-3-yl)-N-{[(2S)-morpholin-2-yl]methyl}benzamide]: under 10 nM.
